According to US7199267B1, “Recognition of oligiosaccaride molecular targets by polycationic small molecule inhibitors and treatment of immunological disorders and infectious diseases” (MediQuest Therapeutics, Inc., priority 2005, dated 2007):

Assays:
[1] = BODIPY-TR-cadaverine (BC) fluorescence displacement assay for LPS binding affinity; conditions: purified re-synthesized leads; half-maximal effective displacement of probe; 50 mM Tris buffer, pH 7.4; read-out: Binding affinity (BC displacement) ED50 value
From the text: Quantitative Estimation of LPS Binding Affinity. The relative binding affinities of the entire library of analogs with a recently-described high-throughput fluorescence based displacement assay, is examined using BODIPY-TR cadaverine (BC).^81;82 Results are reported as half-maximal effective displacement of probe (ED50). In all experiments, Polymyxin B (PMB), a decapeptide antibiotic, known to bind and neutralize LPS,^83–86 is used as a reference compound.
Rapid-throughput Fluorescence Displacement Assay for quantifying binding affinities to LPS. The BODIPY-TR-cadaverine (BC; (5-(((4-(4,4-difluoro-5-(2-thienyl)-4-bora-3a,4a-diaza-s-indacene-3-yl) phenoxy)acetyl)amino)pentylamine, hydrochloride; obtained from Molecular probes, Inc., Eugene, Oreg.) displacement assay to quantify the affinities of binding of compounds to LPS has been described in detail recently.^81 This assay is performed in a rapid-throughput format as follows: the first column (16 wells) of a Corning Nonbinding Surface 384-well flat-bottom black fluorescence microplate contain 15 test compounds plus polymyxin B, all at 5 mM in DMSO, and are serially diluted two-fold in 50 mM Tris buffer, pH 7.4, across the remaining 23 columns, achieving a final dilution of 0.596 nM in a volume of 40 μl. Polymyxin B (PMB), a peptide antibiotic known to bind and neutralize LPS^95 serve as the positive control and reference compound for every plate, enabling the quantitative assessment of repeatability and reproducibility (CV and Z′ factors) for the assay. Automated liquid handling is performed on a Precision 2000 automated microplate pipetting system, programmed using the Precision Power software, Bio-Tek Instruments Inc., VT, USA.

[2] = test system: murine macrophage J774A.1 cells; experiment: Nitric oxide assay (Griess): inhibition of LPS-induced NO production; format: cell-based; conditions: purified re-synthesized leads; 10 ng/ml LPS stimulation, 16 h; read-out: NO inhibition in murine J774 cells IC50 value
Procedure: Assessment of neutralization of LPS toxicity: NO inhibition activity. Murine monocytes (J774.A1 cells) produce measurable quantities of NO upon exposure to LPS and provide a high-throughput and validated model for the rapid and quantitative assessment of compounds in neutralizing the toxicity of LPS.^81;82;94 Compounds that neutralize LPS inhibit NO production in a dose-dependent manner from which 50% inhibitory concentrations (IC50) were determined (FIG. 4). The analogs determined to have the highest affinity in the BC-binding assay are then assayed in this NO inhibition assay (Table 1). Results in this assay parallel those in the binding assay (FIG. 5). Nitric Oxide Assay. Nitric oxide production is measured as total nitrite in murine macrophage J774A.1 cells using the Griess assay^96 as described previously.^94 J774A.1 cells are plated at ˜10^5/ml in a volume of 40 μl/well, in 384-well, flat-bottomed, cell culture treated microtiter plates and subsequently stimulated with 10 ng/ml lipopolysaccharide (LPS). Concurrent to LPS stimulation, serially diluted concentrations of test compounds are added to the cell medium and left to incubate overnight for 16 h. Polymyxin B is used as reference compound in each plate. Positive- (LPS stimulation only) and negative-controls (J774A. 1 medium only) are included in each experiment. Nitrite concentrations are measured by adding 40 μl of supernatant to equal volumes of Griess reagents ([…]; 0.1% NED solution in ddH2O and 1% sulfanilamide, 5% phosphoric acid solution in ddH2O) and incubating for 15 minutes at room temperature in the dark. Absorbance at 535 nm is measured using a Molecular Devices Spectramax M2 multifunction plate reader (Sunnyvale, Calif.). Nitrite concentrations are interpolated from standard curves obtained from serially diluted sodium nitrite standards.

EC50 [1] | IC50 [2] | Structure (SMILES)
12.4 µM | 17.6 µM | CCCCCCCCCCCCCCCCCCNCC(=O)NC(Cc1ccccc1)C(=O)NCCOCCN (centres unmarked) [compound 1002]
2.54 µM | 2.79 µM | CCCCCCCCCCCCCCCCCCNCCC(=O)NC(Cc1ccccc1)C(=O)NCCOCCN (centres unmarked) [compound 1007]
7.68 µM | 3.78 µM | CCCCCCCCCCCCCCCCCCNCCCC(=O)NC(Cc1ccccc1)C(=O)NCCOCCN (centres unmarked) [compound 1012]
13.1 µM | 1.64 µM | CCCCCCCCCCCCCCCCCCNCC(=O)NC(Cc1cnc[nH]1)C(=O)NCCOCCN (centres unmarked) [compound 1032]
3.17 µM | 1.88 µM | CCCCCCCCCCCCCCCCCCNCCC(=O)NC(Cc1cnc[nH]1)C(=O)NCCOCCN (centres unmarked) [compound 1037]
5.38 µM | 1.86 µM | CCCCCCCCCCCCCCCCCCNCCCC(=O)NC(Cc1cnc[nH]1)C(=O)NCCOCCN (centres unmarked) [compound 1042]
14 µM | 11.5 µM | CCCCCCCCCCCCCCCCCCNCC(=O)NCC(=O)NCCOCCN [compound 1047]
14.2 µM | 1.84 µM | CCCCCCCCCCCCCCCCCCNCCC(=O)NCC(=O)NCCOCCN [compound 1052]
10.8 µM | 3.33 µM | CCCCCCCCCCCCCCCCCCNCCCC(=O)NCC(=O)NCCOCCN [compound 1057]
8.8 µM | 6.74 µM | CCCCCCCCCCCCCCCCCCNCC(=O)NC(Cc1ccccc1)C(=O)NCCCN (centres unmarked) [compound 1092]
4.13 µM | 8.7 µM | CCCCCCCCCCCCCCCCCCNCCC(=O)NC(Cc1ccccc1)C(=O)NCCCN (centres unmarked) [compound 1097]
5.75 µM | 3.42 µM | CCCCCCCCCCCCCCCCCCNCCCC(=O)NC(Cc1ccccc1)C(=O)NCCCN (centres unmarked) [compound 1102]
4.87 µM | 6.9 µM | CCCCCCCCCCCCCCCCCCNCC(=O)NC(Cc1cnc[nH]1)C(=O)NCCCN (centres unmarked) [compound 1122]
6.86 µM | 8.06 µM | CCCCCCCCCCCCCCCCCCNCCC(=O)NC(Cc1cnc[nH]1)C(=O)NCCCN (centres unmarked) [compound 1127]
3.01 µM | 1.83 µM | CCCCCCCCCCCCCCCCCCNCCCC(=O)NC(Cc1cnc[nH]1)C(=O)NCCCN (centres unmarked) [compound 1132]
6.61 µM | 7.94 µM | CCCCCCCCCCCCCCCCCCNCC(=O)NCC(=O)NCCCN [compound 1137]
2420 µM | 5.26 µM | CCCCCCCCCCCCCCCCCCNCCC(=O)NCC(=O)NCCCN [compound 1142]

EC50 [1] | IC50 [2] | Structure (SMILES)
6.14 µM | 6.57 µM | CCCCCCCCCCCCCCCCCCNCCCC(=O)NCC(=O)NCCCN [compound 1147]
3850 µM | 4.88 µM | CCCCCCCCCCCCCCCCCCNCCC(=O)NC(Cc1ccccc1)C(=O)NCCCCCN (centres unmarked) [compound 1187]
7.51 µM | 4.8 µM | CCCCCCCCCCCCCCCCCCNCCCC(=O)NC(Cc1ccccc1)C(=O)NCCCCCN (centres unmarked) [compound 1192]
12.1 µM | 2.04 µM | CCCCCCCCCCCCCCCCCCNCC(=O)NC(Cc1cnc[nH]1)C(=O)NCCCCCN (centres unmarked) [compound 1212]
18.7 µM | 0.9 µM | CCCCCCCCCCCCCCCCCCNCCCC(=O)NC(Cc1cnc[nH]1)C(=O)NCCCCCN (centres unmarked) [compound 1222]
28.2 µM | 3.27 µM | CCCCCCCCCCCCCCCCCCNCC(=O)NCC(=O)NCCCCCN [compound 1227]
11.2 µM | 4.61 µM | CCCCCCCCCCCCCCCCCCNCCC(=O)NCC(=O)NCCCCCN [compound 1232]
9.77 µM | 3.22 µM | CCCCCCCCCCCCCCCCCCNCCCC(=O)NCC(=O)NCCCCCN [compound 1237]
3.8 µM | 5.56 µM | CCCCCCCCCCCCCCCCCCNCC(=O)NCCCN [compound 2322]
9.92 µM | 7.49 µM | CCCCCCCCCCCCCCCCCCNCCC(=O)NCCCN [compound 2323]
6.21 µM | 4.87 µM | CCCCCCCCCCCCCCCCCCNCCCC(=O)NCCCN [compound 2324]
8.74 µM | 3.96 µM | CCCCCCCCCCCCCCCCCCNCC(=O)NCCCCCN [compound 2325]
12.2 µM | 9.73 µM | CCCCCCCCCCCCCCCCCCNCC(=O)NCCOCCN [compound 2326]
4.03 µM | 1.08 µM | CCCCCCCCCCCCCCCCCCNCCC(=O)NCCCCCN [compound 2327]
9.16 µM | 6.54 µM | CCCCCCCCCCCCCCCCCCNCCC(=O)NCCOCCN [compound 2328]
7.61 µM | 2.07 µM | CCCCCCCCCCCCCCCCCCNCCCC(=O)NCCCCCN [compound 2329]
5.73 µM | 5 µM | CCCCCCCCCCCCCCCCCCNCCCC(=O)NCCOCCN [compound 2330]
